From patent US8440649B2 (priority 2009, dated 2013)

Tests used:
SARS CoV [1] = details: Vero E6 cells
SARS CoV [2] = experiment: in vitro; details: African green monkey
in vitro = details: African green monkey
SARS CoV [3] = experiment: microbe, parasite or virus in culture; details: Severe acute respiratory syndrome coronavirus, Vero C1008, read-out: Anti-SARS CoV IC50

SMILES	reduction of levels of CPEs caused by SARS CoV infection (in words) (SARS CoV [1])	cytotoxicity per se (in words) (Vero E6 cells)	selectivity ratio (SARS CoV [2])	CC50 (in vitro) [nM]	IC50 (SARS CoV [3]) [nM]	melting point [°C]
COc1cc2c3c(c4cc(OC)c(OC)cc4c2cc1OC)CN1CCCC1C3 (stereo not drawn) [Compound 1]	effectively reduced	low cytotoxicity	23.3	420	18	
COc1cc2c3c(c4cc(OC)c(OC)cc4c2cc1OC)CN1CCCCC1C3 (stereo not drawn) [Compound 11]	effectively reduced	low cytotoxicity				
COc1cc2c3c(c4cc(OC)c(OC)cc4c2cc1OC)C(O)C1CCCCN1C3 (stereo not drawn) [Compound 12]			> 7.1	> 100	14	
COc1cc2c3c(c4cc(OC)c(OC)cc4c2cc1OC)C[N+]1([O-])CCCCC1C3 (stereo not drawn) [Compound 18]			> 56		< 100	
COc1cc2c3cc(OC)c(OC)cc3c3c[n+]4c(cc3c2cc1OC)CCCC4.[Br-] [Compound 19]	effectively reduced	low cytotoxicity				
COc1ccc2c3c(c4cc(OC)c(OC)cc4c2c1)CN1CCCC1C3OC(C)=O (stereo not drawn) [Compound 32]						196 to 198
